From ChEMBL document CHEMBL5696439 (Cancer Res, 2010)
The source made the active and inactive calls. The rule behind the calls is not given here.

Assays:
[1] = molecular target: Serine/threonine-protein kinase PLK1 (Homo sapiens) (UniProt P53350); experiment: Inhibition of recombinant human full length His-tagged PLK1 expressed in insect cells at 2 uM using Ser/Thr 16 as substrate measured after 1 hr by Z'-LYTE assay relative to control; settings: Insect cell
[2] = molecular target: Vascular endothelial growth factor receptor 1 (Homo sapiens) (UniProt P17948); experiment: Inhibition of recombinant human GST-tagged FLT1 (781-1338 residues) expressed in insect cells at 2 uM using Tyr 04 as substrate measured after 1 hr by Z'-LYTE assay relative to control; settings: Insect cell
Sequence of Vascular endothelial growth factor receptor 1 (Homo sapiens) (P17948 whole entry, the tested form may be a part): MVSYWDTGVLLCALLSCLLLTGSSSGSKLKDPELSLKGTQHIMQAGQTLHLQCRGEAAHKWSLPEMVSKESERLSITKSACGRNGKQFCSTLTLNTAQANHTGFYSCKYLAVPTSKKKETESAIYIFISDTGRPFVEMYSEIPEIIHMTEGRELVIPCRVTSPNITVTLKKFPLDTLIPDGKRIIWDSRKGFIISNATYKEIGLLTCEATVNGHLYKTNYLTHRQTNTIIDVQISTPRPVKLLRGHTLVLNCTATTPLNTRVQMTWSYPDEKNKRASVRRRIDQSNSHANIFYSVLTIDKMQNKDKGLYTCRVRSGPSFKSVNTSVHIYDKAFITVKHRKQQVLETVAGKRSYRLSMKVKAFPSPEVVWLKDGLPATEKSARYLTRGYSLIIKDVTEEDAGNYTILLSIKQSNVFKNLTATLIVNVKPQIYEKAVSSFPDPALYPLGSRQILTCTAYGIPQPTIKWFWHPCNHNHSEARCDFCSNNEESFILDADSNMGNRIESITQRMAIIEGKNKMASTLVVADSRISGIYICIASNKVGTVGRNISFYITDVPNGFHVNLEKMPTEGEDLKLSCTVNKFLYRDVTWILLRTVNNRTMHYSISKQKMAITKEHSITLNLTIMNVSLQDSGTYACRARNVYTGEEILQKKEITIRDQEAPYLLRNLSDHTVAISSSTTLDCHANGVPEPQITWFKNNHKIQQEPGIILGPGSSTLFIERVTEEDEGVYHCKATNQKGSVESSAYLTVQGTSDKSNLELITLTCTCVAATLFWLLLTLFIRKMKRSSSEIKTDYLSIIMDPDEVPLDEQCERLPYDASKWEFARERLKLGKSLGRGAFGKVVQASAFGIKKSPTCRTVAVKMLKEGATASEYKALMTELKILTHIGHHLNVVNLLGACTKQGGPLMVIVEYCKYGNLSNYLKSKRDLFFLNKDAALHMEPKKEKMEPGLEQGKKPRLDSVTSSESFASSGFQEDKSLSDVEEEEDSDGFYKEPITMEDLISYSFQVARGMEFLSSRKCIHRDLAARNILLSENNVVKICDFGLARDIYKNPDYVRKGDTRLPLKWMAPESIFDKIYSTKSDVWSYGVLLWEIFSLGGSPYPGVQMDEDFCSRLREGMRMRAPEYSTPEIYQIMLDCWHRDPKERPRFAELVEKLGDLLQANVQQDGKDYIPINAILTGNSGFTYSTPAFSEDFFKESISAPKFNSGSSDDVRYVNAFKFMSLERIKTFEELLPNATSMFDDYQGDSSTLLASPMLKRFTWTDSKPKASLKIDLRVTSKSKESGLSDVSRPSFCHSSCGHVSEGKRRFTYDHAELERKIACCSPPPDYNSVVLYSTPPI

[3] = molecular target: RAC-beta serine/threonine-protein kinase (Homo sapiens) (UniProt P31751); experiment: Inhibition of recombinant human full-length His-tagged AKT2 expressed in insect cells at 2 uM using Ser/Thr 06 as substrate measured after 1 hr by Z'-LYTE assay relative to control; settings: Insect cell
Sequence of RAC-beta serine/threonine-protein kinase (Homo sapiens) (P31751 whole entry): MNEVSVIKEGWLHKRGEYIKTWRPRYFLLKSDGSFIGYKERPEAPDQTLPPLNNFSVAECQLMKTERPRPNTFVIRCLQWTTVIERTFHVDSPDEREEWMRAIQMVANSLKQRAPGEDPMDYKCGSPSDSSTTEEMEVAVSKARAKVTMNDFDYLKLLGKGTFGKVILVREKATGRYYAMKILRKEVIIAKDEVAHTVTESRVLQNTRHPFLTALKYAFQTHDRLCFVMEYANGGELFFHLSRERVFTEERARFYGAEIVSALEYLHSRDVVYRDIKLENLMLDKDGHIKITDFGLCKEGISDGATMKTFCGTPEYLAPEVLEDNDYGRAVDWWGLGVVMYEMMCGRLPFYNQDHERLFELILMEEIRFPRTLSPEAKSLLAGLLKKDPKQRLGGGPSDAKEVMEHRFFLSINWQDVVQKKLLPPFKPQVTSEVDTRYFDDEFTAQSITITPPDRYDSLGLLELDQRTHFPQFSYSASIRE

[4] = molecular target: Serine/threonine-protein kinase PAK 2 (Homo sapiens) (UniProt Q13177); experiment: Inhibition of recombinant human full length GST-tagged PAK2 expressed in insect cells at 2 uM using Ser/Thr 20 as substrate measured after 1 hr by Z'-LYTE assay relative to control; settings: Insect cell
[5] = molecular target: Mitogen-activated protein kinase 8 (Homo sapiens) (UniProt P45983); experiment: Inhibition of recombinant human full length His-tagged MAPK8 expressed in insect cells at 2 uM using Ser/Thr 04 as substrate measured after 1 hr by Z'-LYTE assay relative to control; settings: Insect cell
[6] = tested on: RAF proto-oncogene serine/threonine-protein kinase (Homo sapiens), P04049 [Y340D,Y341D]; experiment: Inhibition of recombinant human GST-tagged RAF1 Y340D/Y341D double mutant (306-648 residues) expressed in insect cells at 2 uM using Ser/Thr 03 as substrate measured after 1 hr by Z'-LYTE assay relative to control; settings: Insect cell
[7] = molecular target: Insulin receptor (Homo sapiens) (UniProt P06213); experiment: Inhibition of recombinant human GST-tagged INSR (1011-1382 residues) expressed in insect cells at 2 uM using Tyr 01 as substrate measured after 1 hr by Z'-LYTE assay relative to control; settings: Insect cell
[8] = tested on: HT-29; experiment: Antitumor activity against human HT-29 cells xenografted in female nude mouse model assessed as suppression in P-AKT at S473 level at 50 mg/kg, iv administered once a week and measured at least 8 hrs by immunoblot analysis; format: functional, organism-based
[9] = molecular target: Tyrosine-protein kinase Lck (Homo sapiens) (UniProt P06239); experiment: Inhibition of recombinant human full-length His-tagged LCK expressed in insect cells at 2 uM using Tyr 02 as substrate measured after 1 hr by Z'-LYTE assay relative to control; settings: Insect cell
Sequence of Tyrosine-protein kinase Lck (Homo sapiens) (P06239 2-509 limits assumed): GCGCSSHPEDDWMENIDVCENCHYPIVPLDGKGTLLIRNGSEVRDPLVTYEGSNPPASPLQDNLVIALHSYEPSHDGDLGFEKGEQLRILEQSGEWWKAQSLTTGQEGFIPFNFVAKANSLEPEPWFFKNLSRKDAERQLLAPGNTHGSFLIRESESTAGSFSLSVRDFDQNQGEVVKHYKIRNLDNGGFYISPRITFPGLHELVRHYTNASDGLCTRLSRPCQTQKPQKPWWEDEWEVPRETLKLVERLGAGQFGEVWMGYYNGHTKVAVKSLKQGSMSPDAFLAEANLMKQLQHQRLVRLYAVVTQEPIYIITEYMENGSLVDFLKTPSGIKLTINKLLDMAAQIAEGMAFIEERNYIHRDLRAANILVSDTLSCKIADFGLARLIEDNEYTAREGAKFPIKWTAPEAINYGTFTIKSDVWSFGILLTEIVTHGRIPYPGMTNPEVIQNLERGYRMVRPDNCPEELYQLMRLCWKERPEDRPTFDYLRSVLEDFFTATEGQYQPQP

[10] = molecular target: Serine/threonine-protein kinase N1 (Homo sapiens) (UniProt Q16512); experiment: Inhibition of recombinant human full length GST-tagged PKN1 expressed in insect cells at 2 uM using Ser/Thr 07 as substrate measured after 1 hr by Z'-LYTE assay relative to control; settings: Insect cell
[11] = tested on: Tyrosine-protein kinase ABL1 (Homo sapiens), P00519 [Y253F]; experiment: Inhibition of recombinant human full-length His-tagged ABL1 Y253F mutant expressed in insect cells at 2 uM using Tyr 02 as substrate measured after 1 hr by Z'-LYTE assay relative to control; settings: Insect cell
[12] = molecular target: Ribosomal protein S6 kinase alpha-5 (Homo sapiens) (UniProt O75582); experiment: Inhibition of recombinant human full length GST-tagged RPS6KA5 expressed in insect cells at 2 uM using Ser/Thr 01 as substrate measured after 1 hr by Z'-LYTE assay relative to control; settings: Insect cell
Sequence of Ribosomal protein S6 kinase alpha-5 (Homo sapiens) (O75582 whole entry, looked up, the tested form may be a part): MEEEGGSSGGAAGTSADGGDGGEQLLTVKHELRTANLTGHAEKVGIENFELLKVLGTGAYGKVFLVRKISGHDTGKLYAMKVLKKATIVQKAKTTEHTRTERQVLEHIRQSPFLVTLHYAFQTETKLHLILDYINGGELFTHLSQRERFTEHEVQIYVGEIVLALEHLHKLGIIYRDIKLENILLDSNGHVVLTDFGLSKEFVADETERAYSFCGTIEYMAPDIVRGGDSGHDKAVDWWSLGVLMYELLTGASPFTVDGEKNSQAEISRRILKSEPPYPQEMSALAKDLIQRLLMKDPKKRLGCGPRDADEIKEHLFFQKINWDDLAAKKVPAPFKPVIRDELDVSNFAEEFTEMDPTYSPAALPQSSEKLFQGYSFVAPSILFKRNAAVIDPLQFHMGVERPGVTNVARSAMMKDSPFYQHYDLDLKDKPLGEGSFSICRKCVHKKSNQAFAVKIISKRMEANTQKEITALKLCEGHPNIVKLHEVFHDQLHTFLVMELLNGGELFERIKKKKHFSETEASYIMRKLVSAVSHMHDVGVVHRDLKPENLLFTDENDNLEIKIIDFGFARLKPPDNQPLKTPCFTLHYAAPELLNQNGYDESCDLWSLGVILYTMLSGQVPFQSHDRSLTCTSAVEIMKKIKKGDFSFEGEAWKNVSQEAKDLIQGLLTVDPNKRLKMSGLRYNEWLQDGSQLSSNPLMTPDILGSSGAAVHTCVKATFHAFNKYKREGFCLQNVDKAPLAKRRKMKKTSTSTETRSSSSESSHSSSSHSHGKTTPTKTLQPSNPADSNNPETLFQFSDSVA

[13] = molecular target: Rho-associated protein kinase 1 (Homo sapiens) (UniProt Q13464); experiment: Inhibition of recombinant human GST-tagged ROCK1 (1-535 residues) expressed in insect cells at 2 uM using Ser/Thr 07 as substrate measured after 1 hr by Z'-LYTE assay relative to control; settings: Insect cell
[14] = molecular target: Insulin receptor-related protein (Homo sapiens) (UniProt P14616); experiment: Inhibition of recombinant human GST-tagged INSRR (944-1297 residues) expressed in insect cells at 2 uM using Tyr 04 as substrate measured after 1 hr by Z'-LYTE assay relative to control; settings: Insect cell
[15] = tested on: HCT-116; experiment: Antitumor activity against human HCT-116 cells xenografted in female nude mouse model assessed as suppression in P-AKT at S473 level at 50 mg/kg, iv administered once a week and measured at least 8 hrs by immunoblot analysis; format: functional, organism-based
[16] = molecular target: Serine/threonine-protein kinase Nek1 (Homo sapiens) (UniProt Q96PY6); experiment: Inhibition of recombinant human GST-tagged NEK1 (1-505 residues) expressed in insect cells at 2 uM using Ser/Thr 07 as substrate measured after 1 hr by Z'-LYTE assay relative to control; settings: Insect cell
[17] = tested on: MDA-MB-361; experiment: Induction of apoptosis in human MDA-MB-361 cells assessed as change in AKT phosphorylation at T308 level at 0.05 to 5 micromol/L incubated for 48 hrs by Western blot analysis; format: functional, cell-based; settings: dose 0.05-5 µmol/L
[18] = tested on: HEK293; experiment: Antiproliferative activity against HEK293 cells assessed as reduction in polysomes at 0.5 micromol/L incubated for 16 hrs; format: functional, Homo sapiens; settings: dose 0.5 µmol/L
[19] = molecular target: G protein-coupled receptor kinase 6 (Homo sapiens) (UniProt P43250); experiment: Inhibition of recombinant human full-length GST-tagged GRK6 expressed in insect cells at 2 uM using Ser/Thr 16 as substrate measured after 1 hr by Z'-LYTE assay relative to control; settings: Insect cell
Sequence of G protein-coupled receptor kinase 6 (Homo sapiens) (P43250 whole entry, looked up): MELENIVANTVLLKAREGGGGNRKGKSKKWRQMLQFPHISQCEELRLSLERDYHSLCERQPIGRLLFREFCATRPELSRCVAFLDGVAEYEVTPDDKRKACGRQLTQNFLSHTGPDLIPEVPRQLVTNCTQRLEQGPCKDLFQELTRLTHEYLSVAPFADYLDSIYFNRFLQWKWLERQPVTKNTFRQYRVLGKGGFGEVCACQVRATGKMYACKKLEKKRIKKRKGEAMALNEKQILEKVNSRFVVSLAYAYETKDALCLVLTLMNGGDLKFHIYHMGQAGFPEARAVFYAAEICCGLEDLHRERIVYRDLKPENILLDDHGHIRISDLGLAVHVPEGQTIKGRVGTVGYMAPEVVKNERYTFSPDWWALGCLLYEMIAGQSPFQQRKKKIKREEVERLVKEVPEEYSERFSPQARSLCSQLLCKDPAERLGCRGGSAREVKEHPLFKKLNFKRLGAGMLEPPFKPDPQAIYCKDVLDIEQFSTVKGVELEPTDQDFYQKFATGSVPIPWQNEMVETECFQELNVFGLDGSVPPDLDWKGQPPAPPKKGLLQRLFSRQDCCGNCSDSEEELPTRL

[20] = tested on: A549; experiment: Antitumor activity against human A549 cells xenografted in female nude mouse model assessed as suppression in tumor growth at 10 mg/kg, po qd administered as 5 days on/2 days off regimen for 4 cycles; format: functional, organism-based; settings: time 28.0 day
[21] = molecular target: Ephrin type-A receptor 4 (Homo sapiens) (UniProt P54764); experiment: Inhibition of recombinant human GST-tagged EPHA4 (616-887 residues) expressed in insect cells at 2 uM using Tyr 02 as substrate measured after 1 hr by Z'-LYTE assay relative to control; settings: Insect cell
[22] = molecular target: Beta-adrenergic receptor kinase 1 (Homo sapiens) (UniProt P25098); experiment: Inhibition of recombinant human full-length His-tagged ADRBK1 expressed in insect cells at 2 uM using Ser/Thr 16 as substrate measured after 1 hr by Z'-LYTE assay relative to control; settings: Insect cell
Sequence of Beta-adrenergic receptor kinase 1 (Homo sapiens) (P25098 whole entry): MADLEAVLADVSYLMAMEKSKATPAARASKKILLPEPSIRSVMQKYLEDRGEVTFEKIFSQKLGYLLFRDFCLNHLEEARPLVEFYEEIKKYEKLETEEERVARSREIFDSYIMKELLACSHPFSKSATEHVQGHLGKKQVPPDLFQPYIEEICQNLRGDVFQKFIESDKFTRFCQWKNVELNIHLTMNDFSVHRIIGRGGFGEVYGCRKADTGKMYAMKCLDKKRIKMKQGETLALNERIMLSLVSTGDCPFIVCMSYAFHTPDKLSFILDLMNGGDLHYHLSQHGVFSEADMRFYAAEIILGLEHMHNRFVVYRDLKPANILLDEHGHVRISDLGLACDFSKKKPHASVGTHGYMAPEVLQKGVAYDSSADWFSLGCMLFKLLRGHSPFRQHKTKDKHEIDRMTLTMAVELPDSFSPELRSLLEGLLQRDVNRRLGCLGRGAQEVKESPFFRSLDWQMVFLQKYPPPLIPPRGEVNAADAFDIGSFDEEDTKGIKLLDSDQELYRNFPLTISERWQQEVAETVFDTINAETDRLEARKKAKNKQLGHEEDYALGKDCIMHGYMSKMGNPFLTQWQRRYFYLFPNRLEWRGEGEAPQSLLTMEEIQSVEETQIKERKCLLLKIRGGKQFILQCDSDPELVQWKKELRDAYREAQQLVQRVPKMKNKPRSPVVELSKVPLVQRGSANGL

[23] = molecular target: Serine/threonine-protein kinase D1 (Homo sapiens) (UniProt Q15139); experiment: Inhibition of recombinant human full length GST-tagged PRKD1 expressed in insect cells at 2 uM using Ser/Thr 17 as substrate measured after 1 hr by Z'-LYTE assay relative to control; settings: Insect cell
[24] = tested on: U-87 MG; experiment: Induction of apoptosis in human U-87MG cells assessed as reduction in S phase at 1 micromol/L incubated for 24 hrs by FACS analysis; format: functional, cell-based; settings: U-87MG ATCC, dose 1.0 µmol/L
[25] = molecular target: Dual specificity mitogen-activated protein kinase kinase 6 (Homo sapiens) (UniProt P52564); experiment: Inhibition of recombinant human full length His-tagged MAP2K6 expressed in baculovirus expression system at 2 uM using Ser/Thr 03 as substrate measured after 1 hr by Z'-LYTE assay relative to control
Sequence of Dual specificity mitogen-activated protein kinase kinase 6 (Homo sapiens) (P52564 whole entry): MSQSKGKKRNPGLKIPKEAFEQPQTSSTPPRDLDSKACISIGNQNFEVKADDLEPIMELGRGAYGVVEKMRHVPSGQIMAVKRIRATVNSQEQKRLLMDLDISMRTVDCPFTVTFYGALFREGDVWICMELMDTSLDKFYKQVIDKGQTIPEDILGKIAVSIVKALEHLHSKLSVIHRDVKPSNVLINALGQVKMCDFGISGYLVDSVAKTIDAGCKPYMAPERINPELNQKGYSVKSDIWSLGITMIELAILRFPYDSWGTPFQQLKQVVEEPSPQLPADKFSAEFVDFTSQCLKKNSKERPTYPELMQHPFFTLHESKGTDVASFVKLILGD

CNC(=O)Nc1ccc(-c2nc(N3CC4CCC(C3)O4)c3cnn(C4CCC5(CC4)OCCO5)c3n2)cc1
inhibition [1]: -4% | inhibition [2]: 8% | inhibition [3]: 5% | inhibition [4]: 15% | inhibition [5]: 12% | inhibition [6]: 12% | inhibition [7]: 4% | Activity [8]: Active | inhibition [9]: 10% | inhibition [10]: 14% | inhibition [11]: 0% | inhibition [12]: 1% | inhibition [13]: -8% | inhibition [14]: 6% | Activity [15]: Active | inhibition [16]: 7% | Activity [17]: inactive | Activity [18]: 0.58 | inhibition [19]: -1% | Activity [20]: Active | inhibition [21]: -1% | inhibition [22]: -1% | inhibition [23]: 0% | Activity [24]: Active | inhibition [25]: 8%
